For series [1], the target named is T1, recombinant human CK2 catalytic subunit (rhCK2α) (Homo sapiens, UniProt P68400).
T1 construct: made in house
Put plainly: radiometric P81 filter isotopic kinase assay, CK2α. As to conditions: for remaining activity at 2 µM: cpd. concentration 2 μM; for remaining activity at 2 µM / remaining activity at 5 µM / remaining activity at 20 µM: read-out: CK2α Residual Activity [%]; for remaining activity at 5 µM: cpd. concentration 5 μM; for remaining activity at 20 µM: cpd. concentration 20 μM. The format is biochemical. As to the method:
(§1) Synthetic peptide […] served as the substrate for CK2, while peptide […] was used as the substrate for PIM-1.
(§2) The synthesized compounds were evaluated for their inhibitory activity against human CK2α, the human CK2 holoenzyme, and PIM-1 using the P81 filter-based isotopic assay, as previously described. […] The experimental data were fitted to a dose–response curve using non-linear regression analysis (variable slope) Y = Bottom + (Top − Bottom)/(1 + 10^((LogIC50 − X) × HillSlope) equation in GraphPad Prism (Prism 9, version 9.0.1).

Series [2] has as its system Vero (Cercopithecus aethiops kidney). Put plainly: MTT-based viability assay, Vero. The format is cell-based. As to conditions: Chlorocebus sabaeus, 48 h, read-out: IC50 [µM] Vero. The procedure: (§3) 3. The cytotoxicity of the newly obtained inhibitors, i.e., 1, 2, and 4 was tested towards four cell lines, i.e., CCRF-CEM (acute lymphoblastic leukemia ALL), MCF-7 (breast carcinoma), MDA-MB-231 (triple negative breast carcinoma), and Vero (Cercopithecus aethiops kidney).
(§4) The CCRF-CEM (acute lymphoblastic leukemia, ALL) and MDA-MB-231 (triple-negative breast adenocarcinoma) cell lines were obtained from the European Collection of Authenticated Cell Cultures (ECACC), while the MCF-7 (hormone-dependent breast adenocarcinoma) and Vero (Cercopithecus aethiops kidney) cell lines were purchased from the American Type Culture Collection (ATCC, Manassas, VA, USA). CCRF-CEM cells were maintained in RPMI-1640 medium, whereas MCF-7 and MDA-MB-231 cells were cultured in DMEM (Sigma-Aldrich Chemical Company, St. Louis, MO, USA). Vero cells were cultured in minimum essential medium eagle (MEM; Sigma-Aldrich). All media were supplemented with 10% fetal bovine serum (FBS), 2 mM L-glutamine, and antibiotics (100 U/mL penicillin and 100 µg/mL streptomycin) (Sigma-Aldrich). Cells were grown in 75-cm^2 culture flasks (Googlab Scientific, Rakocin, Poland) in a humidified atmosphere containing 5% CO2 at 37 °C. All experiments were performed using exponentially growing cultures. Stock solutions of the test compounds were prepared in DMSO and stored at –80 °C for up to one month.
(§5) Following incubation with the tested compounds, the MTT assay was carried out as previously described. Optical density was measured at 570 nm using a BioTek microplate reader (Winooski, VT, USA). All measurements were performed in at least three independent biological replicates.
A general note: Tetrazolium dyes change colour on reduction, which living cells bring about.

The subject of series [3] is CCRF-CEM (acute lymphoblastic leukemia). Put plainly: MTT-based viability assay, CCRF-CEM. As to conditions: for IC50: Homo sapiens, CCRF-CEM, 48 h, read-out: IC50 [µM] CCRF-CEM; for SI (selectivity index) CCRF-CEM: IC50 for Vero/IC50 for cancer cells. Type of series: cell-based, human. The procedure:
as §3, §4, §5

The target in a further series is T2, PIM-1 kinase (Homo sapiens, UniProt P11309).
T2 construct: made in house
T2 sequence (P11309 whole entry): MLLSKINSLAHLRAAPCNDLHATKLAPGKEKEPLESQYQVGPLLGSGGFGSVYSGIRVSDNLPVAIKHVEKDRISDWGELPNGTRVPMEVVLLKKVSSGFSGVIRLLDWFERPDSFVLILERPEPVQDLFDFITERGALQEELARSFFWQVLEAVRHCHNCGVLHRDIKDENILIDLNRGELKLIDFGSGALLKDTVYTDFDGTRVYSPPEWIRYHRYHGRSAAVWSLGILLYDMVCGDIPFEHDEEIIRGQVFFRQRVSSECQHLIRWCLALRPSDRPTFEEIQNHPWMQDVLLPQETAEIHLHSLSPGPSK
Put plainly: radiometric P81 filter isotopic kinase assay, PIM-1. Particulars: for remaining activity at 2 µM: cpd. concentration 2 μM; for remaining activity at 2 µM / remaining activity at 5 µM / remaining activity at 20 µM: read-out: PIM-1 Residual Activity [%]; for remaining activity at 5 µM: cpd. concentration 5 μM; for remaining activity at 20 µM: cpd. concentration 20 μM. The format is biochemical. As to the method:
as §1, §2

A further series relates to MCF-7 (breast carcinoma). Put plainly: MTT-based viability assay, MCF-7. The format is cell-based, human. Particulars: for IC50: Homo sapiens, read-out: IC50 [µM] MCF-7; for SI (selectivity index) MCF-7: IC50 for Vero/IC50 for cancer cells. As to the method: as §3, §4, §5
The subject of series [4] is MDA-MB-231 (breast carcinoma). Put plainly: MTT-based viability assay, MDA-MB-231. Type of series: cell-based, human. As to conditions: for IC50: Homo sapiens, read-out: IC50 [µM] MDA-MB-231. As to the method: as §3, §4, §5
Series [5] deals with hormone-sensitive human prostate cancer cell line LNCaP. The arrangement: method as in PMID 22698781. Particulars: cited from earlier work.
Series [6] deals with mitochondria polarization. The arrangement: method as in PMID 15566294. As to conditions: up to a 10 µM concentration; cited from earlier work.
For the next series, the system named is Jurkat cells. The arrangement: method as in PMID 15566294. Particulars: read-out: DC50 value, apoptosis of Jurkat cells; cited from earlier work.
In another series the test system is LNCaP cell line. The arrangement: method as in PMID 29246854. Particulars: 48 h of exposure to 10 μM; cited from earlier work.
Series [7] has as its system CCRF-CEM cells. Put plainly: annexin V/propidium iodide apoptosis, flow cytometry, CCRF-CEM. The format is cell-based, human. As to conditions: 48 h, annexin V binding. As to the method: The results obtained for CCRF-CEM and MCF-7 are shown in Figure 3 and Figure 4, respectively. […] 1, 79.6% of cells were apoptotic.
CCRF-CEM cells were seeded in 24-well plates at a density of 2 × 10^5 cells/mL. The cells were treated with the tested compounds at concentrations of 8, 16, and 32 µM, followed by incubation for 48 h. After treatment, the cells were harvested and processed according to the previously described protocol. Flow cytometric measurements were conducted within 1 h of cell labeling. Viable, necrotic, early apoptotic, and late apoptotic cells were identified using a BD Accuri C6 Plus flow cytometer and analyzed with BD Accuri C6 Plus software, version 1.0.34.1 (BD Biosciences, San Jose, CA, USA).

The test system of series [8] is CK2 in CCRF-CEM cells (Ser529 in NF-κB p65). Put plainly: PhosFlow analysis of NF-κB p65 Ser529 phosphorylation, CCRF-CEM. Type of series: cell-based, human. Particulars: 16 µM, 24 h. As to the method: CCRF-CEM cells were prepared following the BD PhosFlow™ Protocol for Human PBMCs using NF-κB p65 (pS529)-PE (#558423), BD PhosFlow™ Perm Buffer III (#558050), Cytofix Fixation Buffer (#554655), and Stain Buffer FBS (#554656), all obtained from Becton Dickinson. Flow cytometric analysis was performed using a BD Accuri C6 Plus cytometer (Becton Dickinson) according to the manufacturer’s instructions.

The test system of series [9] is CCRF-CEM cells. Put plainly: cell cycle progression by flow cytometry, CCRF-CEM. Type of series: cell-based, human. As to conditions: 16 µM, 48 h; control 33%. The procedure:
Since CK2 and PIM kinases regulate cell cycle progression, their inhibition may alter the distribution of cells across different cell cycle phases. […] For control cells, the percentage of G2/M cells was 17%. In addition to those changes, we observed cells in the sub-G1 phase, which are apoptotic cells. Accumulation of cells in this phase reflects DNA degradation characteristic of apoptotic cells. The largest percentage of these cells, i.e., 32% was determined in 16 µM 1-treated cells (Figure 6a,b).
(§6) CCRF-CEM and MCF-7 cells were cultured in 6-well plates and treated with the tested compounds for 48 h. After exposure to the compounds, the cells were collected, washed with cold PBS, and fixed in 70% ethanol at –20 °C for at least 24 h. Subsequently, the cells were washed in PBS and stained according to the procedure previously described by our group. The cellular DNA content was measured by flow cytometry using a BD Accuri C6 Plus flow cytometer (BD Biosciences, San Jose, CA, USA). The resulting DNA histograms were analyzed with BD Accuri C6 Plus software (San Diego, CA, USA) to assess the distribution of cells across different phases of the cell cycle.
A general note: A flow cytometer gives signals particle by particle.

A further series has as its system MCF-7 cells. Put plainly: cell cycle progression by flow cytometry, MCF-7. Type of series: cell-based, human. As to conditions: 8 µM, 48 h; control 17%. As to the method:
Additionally, we observed the prolongation of G2/M in MCF-7 treated with 1 at the highest concentration. […] 1 induced G2/M phase arrest in MCF-7 with the highest effect detected for the 16 µM concentration, manifested as 32% cells in that stage, whereas in the control, the percentage of G2/M cells was 22%.
as §6

For series [10], the system named is CCRF-CEM cells. Put plainly: mitochondrial membrane potential (ΔΨm) JC-1 assay, CCRF-CEM. The format is cell-based, human. As to conditions: 16 µM, 48 h. The procedure:
The mitochondrial membrane potential was evaluated by flow cytometry using 5,5′,6,6′-tetrachloro-1,1′,3,3′-tetraethylbenzimidazolocarbocyanine iodide (JC-1; Sigma-Aldrich), as previously described.

Entries after “also recorded” stand apart in the source; their conditions may differ. Where two headings read alike, the source gives them in different places. Bounds are passed on as bounds.

T1 sequence (P68400 whole entry): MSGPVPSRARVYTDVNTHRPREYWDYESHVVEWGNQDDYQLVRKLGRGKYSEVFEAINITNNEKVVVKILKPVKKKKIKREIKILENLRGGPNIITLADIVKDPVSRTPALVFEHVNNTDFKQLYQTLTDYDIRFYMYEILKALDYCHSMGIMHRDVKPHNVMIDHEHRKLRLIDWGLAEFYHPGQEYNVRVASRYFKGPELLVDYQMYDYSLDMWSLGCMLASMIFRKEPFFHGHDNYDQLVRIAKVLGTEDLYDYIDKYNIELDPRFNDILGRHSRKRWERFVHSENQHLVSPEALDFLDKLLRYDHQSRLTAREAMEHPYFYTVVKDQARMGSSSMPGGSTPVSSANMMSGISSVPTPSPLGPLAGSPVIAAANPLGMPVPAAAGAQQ

Take `CC(O)Cn1cnc2c(Br)c(Br)c(Br)c(Br)c21` (stereo not drawn) [compound 2, 1-(4,5,6,7-tetrabromo-1H-benzimidazol-1-yl)propan-2-ol]: the IC50 (usually the concentration that inhibits the measured activity by half) in [1] was 11.1 ± 0.15 µM; in [2] (MTT, non-cancerous cells), 96.1 ± 4.76 µM; in [3] (MTT), 58.2 ± 5.86 µM; against PIM-1 kinase, 2410 ± 290 nM; in the series with MCF-7 (breast carcinoma) (MCF7, MTT, 48 h), 18.4 ± 0.41 µM; in [4] (MDA-MB-231, MTT, 48 h) it was 28.2 ± 3.27 µM. The results for the remaining activity at 2 µM (in [1]; on PIM-1 kinase) were 70.9 ± 0.9% and 58 ± 2.4%, respectively. In addition, the remaining activity at 5 µM was 41.8 ± 2.3% in series [1] and 26.4 ± 1.7% at PIM-1 kinase. Moreover, the remaining activity at 20 µM was 20.1 ± 1.2% in series [1] and 9.3 ± 0.3% at PIM-1 kinase. In [3], the “SI (selectivity index) CCRF-CEM” value came out at 1.65. Moreover, the “SI (selectivity index) MCF-7” value in the series on MCF-7 (breast carcinoma) is given as 5.21. Moreover, the “SI (selectivity index) MDA-MB-231” value in [4] (IC50 for Vero/IC50 for cancer cells) stood at 3.4.
In the case of `Ic1c(I)c(I)c2[nH]cnc2c1I` [TIBI, 4,5,6,7-tetraiodo-1H-benzimidazole], the “LD50 against LNCaP” value in series [5] was “≈ 20 µM”.
As to `CC(=O)CCn1cnc2c(Br)c(Br)c(Br)c(Br)c21` [compound 3, 4-(4,5,6,7-Tetrabromo-1H-benzimidazol-1-yl)butan-2-one], in series [1], the “inhibition of CK2 kinase (in words)” value was “inactive; also recorded: very weak”, the remaining activity at 2 µM was 102 ± 8.9%, the remaining activity at 5 µM was 89.2 ± 8.6% and the remaining activity at 20 µM was 82.8 ± 15.4%. On PIM-1 kinase, the “inhibition of PIM-1 kinase (in words)” value is “inactive; also recorded: very weak”, the remaining activity at 2 µM amounted to 82.5 ± 4.2%, the remaining activity at 5 µM stood at 67.4 ± 0.7% and the remaining activity at 20 µM was 62.6 ± 0.8%.
For the compound `CN(C)c1nc2c(Br)c(Br)c(Br)c(Br)c2[nH]1` [DMAT, 2-Dimethylamino-4,5,6,7-tetrabromo-1H-benzimidazole], the “side effect on mitochondria polarization” value in [6] is recorded as “does not display any side effect on mitochondria polarization”. In addition, the DC50 in the series on Jurkat cells is 2.7 µM.
On to `OCC1OC(n2cnc3c(Br)c(Br)c(Br)c(Br)c32)CC1O` [K164, 1-(β-D-2′-deoxyribofuranosyl)-4,5,6,7-tetrabromo-1H-benzimidazole], for which the “apoptotic cells, LNCaP” value with LNCaP cell line is given as 91.8%.
Consider `Brc1c(Br)c(Br)c2[nH]cnc2c1Br` [TBBi, 4,5,6,7-tetrabromo-1H-benzimidazole, reference compound], for which the “apoptotic CCRF-CEM cells” value in the series with CCRF-CEM cells [7] (8 µM) was found to be 16%; in the series on CCRF-CEM cells [7] (16 µM), 44%; with CCRF-CEM cells [7] (32 µM) it was 95%. Besides, the “p65-P-negative CCRF-CEM cells” value in series [8] is reported as 28%. Also, the “CCRF-CEM cells in the S phase” value with CCRF-CEM cells [9] stood at 19%. Also, the IC50 in series [2] stood at 24.8 ± 0.9 µM; in series [3], 17.6 ± 0.67 µM; on PIM-1 kinase it was 530 ± 40 nM; with MCF-7 (breast carcinoma) (MCF7, 48 h) it was 12.6 ± 2.72 µM; in [4] (MDA-MB-231, 48 h) it was 29.7 ± 2.23 µM. Moreover, the “MCF-7 cells in the S phase” value with MCF-7 cells came to 12%. For the same compound, the “LD50 against LNCaP” value in series [5] is “≈ 20 µM”. Besides, the “CCRF-CEM cells with reduced ΔΨm” value with CCRF-CEM cells [10] came out at 37%.
As for `Brc1c(Br)c(Br)c2[nH]nnc2c1Br` [TBBt, 4,5,6,7-tetrabromo-1(2)H-benzotriazole], the DC50 with Jurkat cells is 17 µM.
Regarding `CC(O)CCn1cnc2c(Br)c(Br)c(Br)c(Br)c21` (stereo not drawn) [compound 4], the remaining activity at 2 µM in [1] was 72.1 ± 3%; at PIM-1 kinase, 66.9 ± 1.1%. Also, the remaining activity at 5 µM in series [1] came to 21.3 ± 1.9%; on PIM-1 kinase it was 29.1 ± 0.1%. Moreover, the remaining activity at 20 µM in series [1] amounted to 15.6 ± 0.3%; on PIM-1 kinase, 21.4 ± 0.2%. Also, the half-inhibitory concentration (IC50) was 132 ± 19.4 µM in [2] (MTT, non-cancerous cells); 75.3 ± 10.3 µM in series [3] (MTT); 3080 ± 70 nM on PIM-1 kinase; 41.9 ± 8.37 µM in the series on MCF-7 (breast carcinoma) (MCF7, MTT, 48 h); more than 200 µM in [4] (MDA-MB-231, MTT, 48 h). In series [3], the “SI (selectivity index) CCRF-CEM” value is given as 1.75. For the same compound, in the series on MCF-7 (breast carcinoma), the “SI (selectivity index) MCF-7” value is given as 3.15.

(Values after paper PMC12193579, “Pro-Apoptotic Activity of 1-(4,5,6,7-Tetrabromo-1H-benzimidazol-1-yl)propan-2-one, an Intracellular Inhibitor of PIM-1 Kinase in Acute Lymphoblastic Leukemia and Breast Cancer Cells” (International Journal of Molecular Sciences, 2025).)
